# Data: US10479780B2, “Aminopyrazole derivatives” (Chugai Seiyaku Kabushiki Kaisha, priority 2015, dated 2019)
# What was measured:
# Type in all cases: biochemical
# human Src enzyme = molecular target: T1, human Src enzyme (Homo sapiens, UniProt P12931); test: Src enzyme inhibitory activity (time-resolved fluorometry, biotinylated peptide phosphorylation); conditions: read-out: SRC_IC50
# T1 construct: purchased Carna Biosciences, Inc. 08-173
# Outline: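 Compounds were tested for blocking tyrosine phosphorylation of a biotinylated peptide substrate by recombinant human Src. Phosphorylated product was quantified by time-resolved fluorometry using europium cryptate and XL665 conjugates, and IC50 was calculated against the compound-free control.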
# human Lck enzyme = molecular target: T2, human Lck enzyme (Homo sapiens, UniProt P06239); test: Lck enzyme inhibitory activity (time-resolved fluorometry, biotinylated peptide phosphorylation); conditions: read-out: LCK_IC50
# T2 construct: purchased Carna Biosciences, Inc. 08-170
# Outline: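 Readout pairs a europium cryptate-labelled anti-phosphotyrosine antibody with XL665-streptavidin, measured by time-resolved fluorescence. IC50 derived from percent inhibition against untreated controls.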
# human Yes1 enzyme = molecular target: T3, human Yes1 enzyme (Homo sapiens, UniProt P07947); test: Yes1 enzyme inhibitory activity (time-resolved fluorometry, biotinylated peptide phosphorylation); conditions: read-out: YES_IC50
# T3 construct: made in house
# Outline: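 Inhibition was expressed against a compound-free control to give IC50, using TR-FRET read-out (Eu-cryptate anti-pTyr antibody, streptavidin-XL665).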
# T2 sequence (P06239 whole entry): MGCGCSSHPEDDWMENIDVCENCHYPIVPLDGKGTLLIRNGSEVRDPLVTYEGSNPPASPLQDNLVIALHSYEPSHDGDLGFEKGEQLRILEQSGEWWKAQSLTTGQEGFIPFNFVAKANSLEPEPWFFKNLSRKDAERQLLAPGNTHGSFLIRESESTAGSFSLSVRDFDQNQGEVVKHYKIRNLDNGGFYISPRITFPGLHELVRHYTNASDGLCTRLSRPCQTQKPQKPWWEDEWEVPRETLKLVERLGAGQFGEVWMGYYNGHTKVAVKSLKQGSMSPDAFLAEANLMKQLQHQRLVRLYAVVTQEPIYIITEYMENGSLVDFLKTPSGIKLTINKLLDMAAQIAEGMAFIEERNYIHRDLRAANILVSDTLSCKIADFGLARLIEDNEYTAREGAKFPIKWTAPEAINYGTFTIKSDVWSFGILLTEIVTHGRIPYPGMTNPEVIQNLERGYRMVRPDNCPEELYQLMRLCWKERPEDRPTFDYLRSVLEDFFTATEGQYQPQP
# T3 sequence (P07947 whole entry): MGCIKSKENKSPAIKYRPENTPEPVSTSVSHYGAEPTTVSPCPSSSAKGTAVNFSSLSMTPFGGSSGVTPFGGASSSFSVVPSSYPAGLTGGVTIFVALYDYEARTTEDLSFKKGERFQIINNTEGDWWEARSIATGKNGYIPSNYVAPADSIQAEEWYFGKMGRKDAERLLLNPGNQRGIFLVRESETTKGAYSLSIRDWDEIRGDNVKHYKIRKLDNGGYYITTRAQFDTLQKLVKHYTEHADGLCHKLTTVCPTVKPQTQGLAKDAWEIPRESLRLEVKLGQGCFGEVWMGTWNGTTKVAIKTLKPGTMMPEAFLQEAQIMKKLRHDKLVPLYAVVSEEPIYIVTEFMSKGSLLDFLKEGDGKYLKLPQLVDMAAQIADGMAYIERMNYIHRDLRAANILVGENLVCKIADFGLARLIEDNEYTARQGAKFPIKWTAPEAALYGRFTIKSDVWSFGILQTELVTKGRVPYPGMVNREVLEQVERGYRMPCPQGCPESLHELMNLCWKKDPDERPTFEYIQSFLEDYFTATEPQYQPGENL
# T1 sequence (P12931 whole entry): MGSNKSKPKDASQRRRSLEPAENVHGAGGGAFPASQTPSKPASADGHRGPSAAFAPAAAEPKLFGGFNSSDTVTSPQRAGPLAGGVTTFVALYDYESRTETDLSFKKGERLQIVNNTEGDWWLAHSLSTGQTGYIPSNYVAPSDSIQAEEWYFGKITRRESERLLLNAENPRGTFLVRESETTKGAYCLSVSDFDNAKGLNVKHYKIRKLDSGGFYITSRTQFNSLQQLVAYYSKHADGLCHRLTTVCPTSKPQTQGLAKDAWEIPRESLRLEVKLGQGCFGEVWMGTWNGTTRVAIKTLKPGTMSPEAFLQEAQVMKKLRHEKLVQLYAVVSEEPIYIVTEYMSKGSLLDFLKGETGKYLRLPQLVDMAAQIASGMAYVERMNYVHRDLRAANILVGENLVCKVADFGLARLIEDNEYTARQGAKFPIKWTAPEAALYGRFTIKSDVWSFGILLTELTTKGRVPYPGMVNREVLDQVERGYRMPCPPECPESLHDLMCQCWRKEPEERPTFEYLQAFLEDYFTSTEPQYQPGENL
Structure (SMILES),IC50 (human Src enzyme) [nM],IC50 (human Lck enzyme) [nM],IC50 (human Yes1 enzyme) [nM]
"Cc1cc(Oc2ccccc2F)ccc1-n1ncc(C(=O)c2cc3cc(OCC(F)F)c(N4CCC(O)CC4)cc3[nH]2)c1N [Example 5-1-087, [5-amino-1-[4-(2-fluorophenoxy)-2-methylphenyl]pyrazol-4-yl]-[5-(2,2-difluoroethoxy)-6-(4-hydroxypiperidin-1-yl)-1H-indol-2-yl]methanone]",13,3.9,0.77
"Cc1cc2cc(C(=O)c3cnn(-c4cnc(Oc5ccccc5F)cc4C)c3N)[nH]c2cc1C1CCN(S(C)(=O)=O)CC1 [Example 5-1-090, [5-amino-1-[6-(2-fluorophenoxy)-4-methylpyridin-3-yl]pyrazol-4-yl]-[5-methyl-6-(1-methylsulfonylpiperidin-4-yl)-1H-indol-2-yl] methanone]",25,3.8,2.6
"Cc1cc2cc(C(=O)c3cnn(-c4cnc(Oc5c(F)cccc5F)cc4C)c3N)[nH]c2cc1C1CCN(S(C)(=O)=O)CC1 [Example 5-1-091, [5-amino-1-[6-(2,6-difluorophenoxy)-4-methylpyridin-3-yl]pyrazol-4-yl]-[5-methyl-6-(1-methylsulfonylpiperidin-4-yl)-1H-indol-2-yl] methanone]",24,3.7,3.2
"Cc1cc(Oc2ccccc2F)ccc1-n1ncc(C(=O)c2cc3cc(N4CCOCC4)c(N4CCN(S(C)(=O)=O)CC4)cc3[nH]2)c1N [Example 5-1-093, [5-amino-1-[4-(2-fluorophenoxy)-2-methylphenyl]pyrazol-4-yl]-[6-(4-methylsulfonylpiperazin-1-yl)-5-morpholin-4-yl-1H-indol-2-yl]methanone]",11,3.7,1.8
"Cc1cc(Oc2ccccc2F)ccc1-n1ncc(C(=O)c2cc3cc(N4CCOCC4)c(N4CCOCC4)cc3[nH]2)c1N [Example 5-1-094, [5-amino-1-[4-(2-fluorophenoxy)-2-methylphenyl]pyrazol-4-yl]-(5,6-dimorpholin-4-yl-1H-indol-2-yl)methanone]",19,4.1,2.9
"Cc1cc(Oc2ccccc2F)ccc1-n1ncc(C(=O)c2cc3cc(F)c(N4CCOC4=O)cc3[nH]2)c1N [Example 5-1-095, 3-[2-[5-amino-1-[4-(2-fluorophenoxy)-2-methylphenyl]pyrazole-4-carbonyl]-5-fluoro-1H-indol-6-yl]-1,3-oxazolidin-2-one]",4.5,1.5,0.87
"Cc1cc(Oc2c(F)cccc2F)ncc1-n1ncc(C(=O)c2cc3cc(F)c(N4CCOC4=O)cc3[nH]2)c1N [Example 5-1-097, 3-[2-[5-amino-1-[6-(2,6-difluorophenoxy)-4-methylpyridin-3-yl]pyrazole-4-carbonyl]-5-fluoro-1H-indol-6-yl]-1,3-oxazolidin-2-one]",8.7,1.3,1.1
"Cc1cc(Oc2c(F)cccc2F)ncc1-n1ncc(C(=O)c2cc3cc(F)c(N4CCCC4=O)cc3[nH]2)c1N [Example 5-1-098, 1-[2-[5-amino-1-[6-(2,6-difluorophenoxy)-4-methylpyridin-3-yl]pyrazole-4-carbonyl]-5-fluoro-1H-indol-6-yl]pyrrolidin-2-one]",15,1.4,1.9
Cc1cc(Oc2c(F)cccc2F)ncc1-n1ncc(C(=O)c2cc3cc(F)c(N4CCN(S(C)(=O)=O)CC4)cc3[nH]2)c1N [Example 5-1-099],11,2.2,2.1
"Cc1cc(Oc2c(F)cccc2F)ncc1-n1ncc(C(=O)c2cc3cc(F)c(N4CCOCC4)cc3[nH]2)c1N [Example 5-1-100, [5-amino-1-[6-(2,6-difluorophenoxy)-4-methylpyridin-3-yl]pyrazol-4-yl]-(5-fluoro-6-morpholin-4-yl-1H-indol-2-yl)methanone]",8.7,1.3,1.6
"Cc1cc(Oc2c(F)cccc2F)ncc1-n1ncc(C(=O)c2cc3cc(F)c(-n4c(C)cc(=O)[nH]c4=O)cc3[nH]2)c1N [Example 5-1-101, 1-[2-[5-amino-1-[6-(2,6-difluorophenoxy)-4-methylpyridin-3-yl]pyrazole-4-carbonyl]-5-fluoro-1H-indol-6-yl]-6-methylpyrimidine-2,4-dione]",25,1.1,1.9
"Cc1cc(Oc2c(F)cccc2F)ncc1-n1ncc(C(=O)c2cc3cc(F)c(NC4CN(S(C)(=O)=O)C4)cc3[nH]2)c1N [Example 5-1-102, [5-amino-1-[6-(2,6-difluorophenoxy)-4-methylpyridin-3-yl]pyrazol-4-yl]-[5-fluoro-6-[(1-methylsulfonylazetidin-3-yl)amino]-1H-indol-2-yl]methanone]",5,1.3,0.77
"Cc1cc(Oc2ccccc2F)ccc1-n1ncc(C(=O)c2cc3cc(N4CCOCC4)c(N4CCCC4=O)cc3[nH]2)c1N [Example 5-1-105, 1-[2-[5-amino-1-[4-(2-fluorophenoxy)-2-methylphenyl]pyrazole-4-carbonyl]-5-morpholin-4-yl-1H-indol-6-yl]pyrrolidin-2-one]",3.6,1.6,0.77
"Cc1cc(Oc2ccccc2F)ccc1-n1ncc(C(=O)c2cc3cc(N4CCOCC4)c(N4CCOC4=O)cc3[nH]2)c1N [Example 5-1-106, 3-[2-[5-amino-1-[4-(2-fluorophenoxy)-2-methylphenyl]pyrazole-4-carbonyl]-5-morpholin-4-yl-1H-indol-6-yl]-1,3-oxazolidin-2-one]",2,1.1,0.42

# Results, then the molecule that gave them:
IC50 (human Src enzyme) [nM],IC50 (human Lck enzyme) [nM],IC50 (human Yes1 enzyme) [nM],Structure (SMILES)
34,4.5,4.1,"Cc1cc2cc(C(=O)c3cnn(-c4c(C)cc(Oc5ccccc5F)cc4F)c3N)[nH]c2cc1N1CCOCC1 [Example 5-1-084, [5-amino-1-[2-fluoro-4-(2-fluorophenoxy)-6-methylphenyl]pyrazol-4-yl]-(5-methyl-6-morpholin-4-yl-1H-indol-2-yl)methanone]"
21,2,2.3,"Cc1cc2cc(C(=O)c3cnn(-c4c(C)cc(Oc5ccccc5F)cc4F)c3N)[nH]c2cc1N1CCC(N2CCOCC2)CC1 [Example 5-1-085, [5-amino-1-[2-fluoro-4-(2-fluorophenoxy)-6-methylphenyl]pyrazol-4-yl]-[5-methyl-6-(4-morpholin-4-ylpiperidin-1-yl)-1H-indol-2-yl] methanone]"
8.5,2.8,1.4,"Cc1cc2cc(C(=O)c3cnn(-c4ccc(Oc5ccccc5F)cc4C)c3N)[nH]c2cc1C1CCN(S(C)(=O)=O)CC1 [Example 5-1-086, [5-amino-1-[4-(2-fluorophenoxy)-2-methylphenyl]pyrazol-4-yl]-[5-methyl-6-(1-methylsulfonylpiperidin-4-yl)-1H-indol-2-yl] methanone]"
27,2.8,2.2,"Cc1cc2cc(C(=O)c3cnn(-c4cnc(Oc5c(F)cccc5F)cc4C)c3N)[nH]c2cc1NS(=O)(=O)CC(=O)N1CCCC1 [Example 5-1-088, N-[2-[5-amino-1-[6-(2,6-difluorophenoxy)-4-methylpyridin-3-yl]pyrazole-4-carbonyl]-5-methyl-1H-indol-6-yl]-2-oxo-2-pyrrolidin-1-ylethanesulfonamide]"
77,8.9,6.2,"Cc1cc2cc(C(=O)c3cnn(-c4c(C)cc(Oc5ccccc5F)cc4F)c3N)[nH]c2cc1NS(=O)(=O)CC(=O)NC(C)C [Example 5-1-089, 2-[[2-[5-amino-1-[2-fluoro-4-(2-fluorophenoxy)-6-methylphenyl]pyrazole-4-carbonyl]-5-methyl-1H-indol-6-yl]sulfamoyl]-N-propan-2-ylacetamide]"
16,2.8,0.91,"Cc1cc2cc(C(=O)c3cnn(-c4ccc(Oc5c(F)cccc5F)cc4C)c3N)[nH]c2cc1NS(C)(=O)=O [Example 5-1-092, N-[2-[5-amino-1-[4-(2,6-difluorophenoxy)-2-methylphenyl]pyrazole-4-carbonyl]-5-methyl-1H-indol-6-yl]methanesulfonamide]"
33,2.7,1.7,"Cc1cc2cc(C(=O)c3cnn(-c4ccc(Oc5c(F)cccc5Cl)cc4C)c3N)[nH]c2cc1NS(C)(=O)=O [Example 5-1-096, N-[2-[5-amino-1-[4-(2-chloro-6-fluorophenoxy)-2-methylphenyl]pyrazole-4-carbonyl]-5-methyl-1H-indol-6-yl] methanesulfonamide]"
5.2,1.1,0.38,"Cc1cc(Oc2ccccc2F)ccc1-n1ncc(C(=O)c2cc3cc(F)c(N4CCCC4=O)cc3[nH]2)c1N [Example 5-1-103, 1-[2-[5-amino-1-[4-(2-fluorophenoxy)-2-methylphenyl]pyrazole-4-carbonyl]-5-fluoro-1H-indol-6-yl]pyrrolidin-2-one]"
9.7,1.1,0.63,"Cc1cc(Oc2ccccc2F)ccc1-n1ncc(C(=O)c2cc3cc(F)c(-n4c(C)cc(=O)[nH]c4=O)cc3[nH]2)c1N [Example 5-1-104, 1-[2-[5-amino-1-[4-(2-fluorophenoxy)-2-methylphenyl]pyrazole-4-carbonyl]-5-fluoro-1H-indol-6-yl]-6-methylpyrimidine-2,4-dione]"
96,7.9,1.5,"Cc1cc2cc(C(=O)c3cnn(-c4ccc(Oc5cc(F)ccc5F)cc4C)c3N)[nH]c2cc1NS(C)(=O)=O [Example 5-1-107, N-[2-[5-amino-1-[4-(2,5-difluorophenoxy)-2-methylphenyl]pyrazole-4-carbonyl]-5-methyl-1H-indol-6-yl]methanesulfonamide]"
